The source of these data is patent US5616615A, “Enaminone esters” (priority 1995, dated 1997).

Structures are written as SMILES. Read-outs that look alike come from different tables or passages of the source.

The test system of data set [1] is Maximal electroshock seizures. Briefly: Phase VI oral MES test, rats. The class given is in vivo. The note with it: oral; for responders at 50 mg/kg: Rattus norvegicus, read-out: MES, animals protected/tested (converted). From the text: (§1) Maximal electroshock seizures are elicited with a 60-cycle alternating current of 50 mA intensity (5-7 times that necessary to elicit minimal electroshock seizures) delivered via corneal electrodes for 0.2 seconds. A drop of 0.9% saline is instilled in the eye prior to application of the electrodes in order to […].
(§2) This oral screen is designated as phase VI.

Data set [2] deals with Amygdala Kindled Seizures. Briefly: Suppression of amygdala kindled seizures. The class given is in vivo. The protocol:
Compounds 12 and 27 were evaluated in our laboratory for suppression of amygdala kindled seizures.

For a further data set, the system named is seizures. As to the kind of experiment: Anticonvulsant evaluation (ASP phase I / overall). The data set is classed as in vivo, mice. An outline of the steps: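 Male Carworth Farms #1 mice; maximal electroshock seizures elicited by 60-cycle AC, 50 mA, 0.2 s via corneal electrodes after a drop of 0.9% saline in the eye. Animals observed for 30 minutes.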

A short description of data set [3]: in vivo. The note with it: rat, po.
Excerpt: as §2

The next data set can be described thus: Neurotoxicity, rats ip. The note with it: 100 mg/kg.
For the next data set, the system named is bicuculline. As to the kind of experiment: Phase V quantification against bicuculline. The data set is classed as in vivo. The note with it: 12.5, 25, 50 and 100 mg/kg. How it is done:
(§3) Both 12 and 27 were evaluated in Phase V of the ADD Program evaluation scheme. Phase V provides quantification against bicuculline, picrotoxin, pentylenetetrazol, and strychnine. This screen provides information on the mechanism of action of the anticonvulsant activity. Bicuculline, picrotoxin, and strychnine correspond to GABA inhibitory function, chloride channel inhibition and inhibition by glycine respectively.

The test system of the next data set is pentylenetetrazol. As to the kind of experiment: Phase V quantification against pentylenetetrazol. The data set is classed as in vivo. The note with it: 12.5, 25, 50 and 100 mg/kg. How it is done: as §3
Data set [4] deals with Maximal electroshock seizures. As to the kind of experiment: MES maximal electroshock seizure test, mice ip. The data set is classed as in vivo. The arrangement: TPE (time of peak effect), activity: unit not given here. The note with it: ip; for responders at 10 mg/kg: read-out: MES, animals protected/tested (converted); for responders at 300 mg/kg: read-out: MES, animals protected/tested. The protocol:
Three tests were performed:
1. MES--Electroshock Seizure Test
as §1

The next data set has as its system Corneal Kindled rats. As to the kind of experiment: Corneal kindling. The data set is classed as in vivo. The protocol:
Corneal kindling studies were performed in our laboratories on 12 and 27 and the results are shown in Tables XI and XII and FIGS. 1A and 1B. Comparative data for the commercial products are included. Seizures evoked in electroshock-kindled rats provide a suitable model consistent with complex partial seizures evolving into generalized motor seizures in humans.
^a Rats kindled to Stage 5. Endpoint was reduction from Stage 5 to […]

Data set [5] in a line: in vivo. The note with it: mouse, in vivo, ip.
The next data set relates to picrotoxin. As to the kind of experiment: Phase V quantification against picrotoxin. The data set is classed as in vivo. The note with it: 12.5, 25, 50 and 100 mg/kg. How it is done: as §3
In the next data set the test system is strychnine. As to the kind of experiment: Phase V quantification against strychnine. The class given is in vivo. The note with it: 12.5, 25, 50 and 100 mg/kg. The protocol: as §3
Data set [6] deals with Subcutaneous Pentylenetetrazol seizure. Briefly: sc Met subcutaneous pentylenetetrazol (Metrazol) seizure test, mice. The data set is classed as in vivo. The note with it: Mus musculus, sc; for responders at 10 mg/kg: read-out: scMet, animals protected/tested; for responders at 300 mg/kg: read-out: scMet, animals protected/tested (converted).
Another data set has as its system electroshock seizures. As to the kind of experiment: MES maximal electroshock test, rats ip. The class given is in vivo. The note with it: 100 mg/kg.
Excerpt: as §1

For data set [7] the following is noted: Kase et al., Jap. J. Pharmacol. 1974; cited from earlier work.

Procedure for Neurotoxicity, rats ip: The rotorod test is used to elevate neurotoxicity. The animal is placed on a 1 inch diameter knurled plastic rod rotating at 6 rpm. […] Neurologic toxicity is defined as the failure of the animal to remain on the rod for 1 minute and the results are expressed as the number of animals protected/the number of animals tested.
The toxicity evaluation for the commercial agents as previously indicated was based on the onset of ataxia.

Consider `COC(=O)C1C(=O)C=C(NCc2ccccc2)CC1C` (stereo not drawn) [Compound 12, Methyl 4-(benzyl)amino-6-methyl-2-oxocyclohex-3-en-1-oate], for which the ED50 (as a rule, the midpoint of the dose-response relation) in [1] (Phase VI, rat) turned out to be 26.8 mg/kg; in [4] (Mus musculus, Phase II, time of peak effect), 64.7 mg/kg; with Corneal Kindled rats (Rattus norvegicus, po, 0.5 h, read-out: ED50 (reduction from Stage 5 to Stage 4)), 41.9 mg/kg. The responders at 50 mg/kg in data set [1] (0.5 h, 0.50 h) is 100%; in data set [1] (0.25 h), 50%; in data set [1] (1.00 h), 75%; in data set [1] (2.00 h), 50%; in [1] (4.00 h) it was 50%. Also, in data set [2] (500 mg/kg), the “Afterdischarge Amygdala: Duration” value is 73.9 s. Moreover, the “Afterdischarge Cortex: Duration” value in data set [2] (500 mg/kg) turned out to be 78.9 s. Besides, the “Afterdischarge Cortex: Latency” value in data set [2] (500 mg/kg) is given as 2.8 s. In data set [2] (500 mg/kg), the “Behavioral Seizure: Duration” value is 79.5 s. In addition, the “Behavioral Seizure: Latency” value in data set [2] (500 mg/kg) worked out at 2.1 s. Besides, the “Forelimb Clonus: Duration” value in data set [2] (500 mg/kg) was 44.2 s. In data set [2] (500 mg/kg), the “Forelimb Clonus: Latency” value turned out to be 9.3 s. Besides, the “Seizure Stage” value in [2] (500 mg/kg) was determined as 5.0. In addition, the “suppression of amygdala kindled seizures” value in data set [2] (in vivo) is on record as “no significant activity”. Besides, the minimal effective dose in the data set on seizures (Mus musculus, ip, Phase I, read-out: ASP Classification) was below 100 mg/kg. The “anticonvulsant activity” value in the data set on seizures (mouse, in vivo) is “highly active”. Also, the TD50 in “in vivo [3]” and in “in vivo [5]” was above 500 mg/kg throughout. In addition, the selectivity ratio came to 18.7 in “in vivo [3]” and 7.73 in “in vivo [5]”. For the same compound, the “Tox, animals toxic/tested” value is 0/4 in the data set “in vivo [3]” (50 mg/kg); 0/4 in the data set “Neurotoxicity, rats ip” (0.25 h (Table X)); 0/4 in the data set “Neurotoxicity, rats ip” (0.50 h (Table X)); 0/4 in the data set “Neurotoxicity, rats ip” (1.00 h (Table X)); 0/4 in “Neurotoxicity, rats ip” (2.00 h (Table X)); 0/4 in the data set “Neurotoxicity, rats ip” (4.00 h (Table X)). The “toxicity” value in the data set “Neurotoxicity, rats ip” (ip, four hour evaluation) is on record as “No toxicity was noted”. Further, the “protection against bicuculline” value in the data set with bicuculline was “uniformly inactive”. Besides, the “protection against pentylenetetrazol” value in the data set on pentylenetetrazol was “uniformly inactive”. Also, the responders at 10 mg/kg in [4] (Mus musculus, 0.5 h, 30 min) was 66.7%; in data set [4] (Mus musculus, 4 h, 4 h) it was 0%; in data set [6] (0.5 h, 30 min), 10%; in [6] (4 h, 4 h), 10%. The responders at 300 mg/kg in [4] (Mus musculus, 0.5 h, 30 min) is 100%; in data set [4] (Mus musculus, 4 h, 4 h), 0%; in [6] (0.5 h, 30 min), 0%; in data set [6] (4 h, 4 h), 0%. Moreover, the “TPE (time of peak effect), activity” value in data set [4] (Phase II) was determined as 0.5. Further, the “% Reduction” value in the data set on Corneal Kindled rats (50 mg/kg) was found to be 17%; with Corneal Kindled rats (60 mg/kg), 23%; with Corneal Kindled rats (75 mg/kg) it was 75%. In the data set “in vivo [5]”, the “TPE (time of peak effect), toxicity” value stood at 1. In addition, the “protection against picrotoxin” value in the data set on picrotoxin was “uniformly inactive”. In addition, in the data set on strychnine, the “protection against strychnine” value was “uniformly inactive”. In addition, the “MES, animals protected/tested” value in the data set with electroshock seizures (0.25 h (Table X)) is given as 4/4; with electroshock seizures (0.50 h (Table X)), 4/4; in the data set with electroshock seizures (1.00 h (Table X)), 4/4; with electroshock seizures (2.00 h (Table X)), 4/4; with electroshock seizures (4.00 h (Table X)), 3/4.
For the compound `COc1cccc(C2=C(CN(C)CCc3ccccc3)C(=O)CC(C)(C)C2)c1` [MK 1-907, 5,5-dimethyl-3-(m-methoxy)phenyl-2-N-methyl-N-phenethylaminomethylcyclohex-2-ene-1-one], the “pharmacological actions” value in data set [7] is “potent analgesics with morphine-like, as well as anticonvulsant and papaverine-like, actions”.
For `CC1(C)CC(=O)C(CN2CCCCC2)=C(Nc2ccccc2Cl)C1` [MK 1-203, 5,5-dimethyl-3-(o-chloro)phenylamino-2-(N-piperidinylmethyl)cyclohex-2-ene-1-one], in data set [7], the “pharmacological actions” value was “potent analgesics with morphine-like, as well as anticonvulsant and papaverine-like, actions”.
